# Reference: patent US20250312469A1 (CANGET BIOTEKPHARMA, priority 2024, published 2025)
# Values joined by “and” are separate entries in the source; they are usually repeats but may differ in a detail not shown here. Equal values may be shown once.
# Assays:
# in vitro [1] = conditions: both, human, s9
# [2] = HPβCD-FL118 complex dissolution test; type: physicochemical; conditions: 37° C.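 Further: 20 mL buffer stirred at 100 rpm.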
# Experimental: The collected samples were analyzed for the concentrations of the supernatants by HPLC.
# Blood partitioning = conditions: human whole blood
# CRPC LAPC9 tumors = assay: LAPC9 CRPC tumor model; type: in vivo, SCID mice; conditions: 10 mg/kg i.p., 6 times over 2 weeks
# CYP3A = assay: in vitro; conditions: human, microsomes, pH 7.4
# Experimental: (§1) The CYP reaction was initiated by adding a CYP probe substrate and incubating at 37° C. for 10-20 minutes, depending on the individual CYP isoform. The reaction was terminated with the addition of 400 μL ice-cold acetonitrile (ACN). […] Positive controls were performed in parallel using a known inhibitor of the individual CYP isoform. […] The samples were then transferred to 96-well plates and analyzed by LC-MS/MS (Appendix 1).
# CYP1A2 mRNA = assay: CYP induction (mRNA) in fresh human hepatocytes; conditions: human, 3 days, 50 µM
# From the text: (§2) (2) CYP positive inducers (Table 58a) and Williams' Medium E (WME) were purchased from Sigma-Aldrich (St. Louis, MO, USA). Dulbecco's phosphate-buffered saline (DPBS, pH 7.4) was purchased from Invitrogen (Carlsbad, CA, USA). Hepatocyte culture medium (serum-free) for CYP induction was purchased from XenoTech (catalog #K2300, Lenexa, KS, USA). The CellTiter 96 AQueous ONE Solution Cell Proliferation Assay was obtained from Promega (Madison, WI, USA). All other chemicals and reagents were of analytical grade or higher. (3) Fresh human hepatocytes (Table 58b) seeded at ˜0.15 million cells/well in 48-well plates (˜0.75 million cells/mL) were purchased from Thermo Fisher Scientific (Grand Island, NY, USA) and BioreclamationIVT (Baltimore, MD, USA).
# (§3) Vehicle controls were treated in parallel with hepatocyte culture medium. […] (2) After the CYP induction treatment, the cells were used for a cell viability assay. […] The absorbance of formazan, which is proportional to the number of viable cells, was measured spectrophotometrically using the CellTiter 96 AQueous ONE Solution Cell Proliferation Assay. […] (3) Total RNA was isolated from the treated cells using the RNeasy mini kit (Qiagen, Valencia, CA, USA) and treated with RNase-free DNase (Qiagen) following the manufacturer's protocols. The concentration of RNA was determined using a Qubit Fluorometer with a Qubit RNA HS assay kit (Invitrogen). cDNA was synthesized from up to 1 μg of the total RNA harvested from the cells using a QuantiTect RT kit (Qiagen). Analysis of gene expression by qPCR was performed using the LightCycler 480 System (Roche Diagnostics Corporation, Indianapolis, IN, USA).
# CYP2B6 mRNA = assay: CYP induction (mRNA) in fresh human hepatocytes; conditions: human
# From the text: as §2, §3
# human hepatocytes = assay: Cell viability (MTS) after CYP induction treatment; conditions: donor 2, control inducers (OME, PB, RIF)
# Experimental: as §3
# [3] = system: L5178Y TK+/− mouse lymphoma cells; assay: Mouse Lymphoma Assay (MLA); conditions: for Avg. MF (Mutant Frequency) / Avg. SG: 24 h treatment, −S9
# Experimental: The cells were prepared in Fischer's or RPMI media supplemented with 10% heat-inactivated horse serum, penicillin-streptomycin, Lglutamine, sodium pyruvate and Pluronic F68. In the initial assay, prior to use in the test, the culture was purged of preexisting TK−/− mutations by exposure to THMG treated medium for 1 day, followed by a transfer to THG medium for 1 to 2 days. This was performed 5 to 8 days prior to testing. In the expanded assay a vial of frozen cells was thawed and used within 5 to 8 days of growth. No washing was needed because the cells were purged of preexisting TK−/− mutations by exposure to THMG treated medium for 1 day and then THG medium for 1 day prior to freezing. […] Colonies were counted using an automated colony counter or manually. After 4 or 24 hours of exposure, the cells were grown for recovery and expression for approximately 48 hours before plated in TFT cloning media. A second set of plates were prepared without TFT to assess viability of cells following treatment. […] Colonies observed on the TFT plate were defined as small or large colonies. […] (3) Of note, the metabolic activation system in this assay consisted of a rat liver homogenate (S-9 microsomal fraction), which was delivered to the test system in the presence of a core mix consisting of NADP and cofactors for NADPH-supported oxidation. The S9 was prepared using the following recipe (per treatment tube); 1 mL of 20 mg/mL S9, 32 mg of NADP, 60 mg of isocitric acid, 40 μL of calcium chloride (CaCl2) and 3.0 mL of cell cultural media. All treatments were performed in duplicate. The treatment tubes were placed in a CO2 incubator at 37±1° C. with continuous agitation.
# CYP2B6 = biological target: T1, CYP2B6 (Homo sapiens, UniProt P20813); assay: in vitro; conditions: human, microsomes, pH 7.4
# T1 sequence (P20813 1-491): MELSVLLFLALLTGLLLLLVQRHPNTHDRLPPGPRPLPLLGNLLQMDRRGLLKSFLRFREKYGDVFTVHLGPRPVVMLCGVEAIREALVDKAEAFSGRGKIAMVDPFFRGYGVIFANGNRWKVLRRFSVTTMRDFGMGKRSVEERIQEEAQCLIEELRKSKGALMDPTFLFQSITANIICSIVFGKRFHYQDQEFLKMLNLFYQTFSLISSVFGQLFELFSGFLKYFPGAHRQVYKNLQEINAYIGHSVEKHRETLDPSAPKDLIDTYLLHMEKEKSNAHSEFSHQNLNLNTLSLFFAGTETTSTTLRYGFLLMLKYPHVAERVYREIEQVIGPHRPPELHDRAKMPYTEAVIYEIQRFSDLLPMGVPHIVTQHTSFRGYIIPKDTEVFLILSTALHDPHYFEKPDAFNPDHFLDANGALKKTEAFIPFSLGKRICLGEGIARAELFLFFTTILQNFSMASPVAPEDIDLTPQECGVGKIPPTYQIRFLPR
# Experimental: as §1
# in vitro [4] = assay: in vitro
# [5] = Liver microsome stability; conditions: human liver microsome; control compound
# DDX5 = DDX5 (Homo sapiens, UniProt P17844); assay: Isothermal titration calorimetry (ITC), Flag-DDX5; type: binding; conditions: ITC, 25° C., 1×PBS pH7.4 with 8% DMSO
# P-gp = P-gp (Homo sapiens, UniProt P08183); conditions: Caco-2; digoxin as substrate; 1.0 μM FL118 or 1.0 μM Valspodar
# Chain of P-gp (P08183 whole entry): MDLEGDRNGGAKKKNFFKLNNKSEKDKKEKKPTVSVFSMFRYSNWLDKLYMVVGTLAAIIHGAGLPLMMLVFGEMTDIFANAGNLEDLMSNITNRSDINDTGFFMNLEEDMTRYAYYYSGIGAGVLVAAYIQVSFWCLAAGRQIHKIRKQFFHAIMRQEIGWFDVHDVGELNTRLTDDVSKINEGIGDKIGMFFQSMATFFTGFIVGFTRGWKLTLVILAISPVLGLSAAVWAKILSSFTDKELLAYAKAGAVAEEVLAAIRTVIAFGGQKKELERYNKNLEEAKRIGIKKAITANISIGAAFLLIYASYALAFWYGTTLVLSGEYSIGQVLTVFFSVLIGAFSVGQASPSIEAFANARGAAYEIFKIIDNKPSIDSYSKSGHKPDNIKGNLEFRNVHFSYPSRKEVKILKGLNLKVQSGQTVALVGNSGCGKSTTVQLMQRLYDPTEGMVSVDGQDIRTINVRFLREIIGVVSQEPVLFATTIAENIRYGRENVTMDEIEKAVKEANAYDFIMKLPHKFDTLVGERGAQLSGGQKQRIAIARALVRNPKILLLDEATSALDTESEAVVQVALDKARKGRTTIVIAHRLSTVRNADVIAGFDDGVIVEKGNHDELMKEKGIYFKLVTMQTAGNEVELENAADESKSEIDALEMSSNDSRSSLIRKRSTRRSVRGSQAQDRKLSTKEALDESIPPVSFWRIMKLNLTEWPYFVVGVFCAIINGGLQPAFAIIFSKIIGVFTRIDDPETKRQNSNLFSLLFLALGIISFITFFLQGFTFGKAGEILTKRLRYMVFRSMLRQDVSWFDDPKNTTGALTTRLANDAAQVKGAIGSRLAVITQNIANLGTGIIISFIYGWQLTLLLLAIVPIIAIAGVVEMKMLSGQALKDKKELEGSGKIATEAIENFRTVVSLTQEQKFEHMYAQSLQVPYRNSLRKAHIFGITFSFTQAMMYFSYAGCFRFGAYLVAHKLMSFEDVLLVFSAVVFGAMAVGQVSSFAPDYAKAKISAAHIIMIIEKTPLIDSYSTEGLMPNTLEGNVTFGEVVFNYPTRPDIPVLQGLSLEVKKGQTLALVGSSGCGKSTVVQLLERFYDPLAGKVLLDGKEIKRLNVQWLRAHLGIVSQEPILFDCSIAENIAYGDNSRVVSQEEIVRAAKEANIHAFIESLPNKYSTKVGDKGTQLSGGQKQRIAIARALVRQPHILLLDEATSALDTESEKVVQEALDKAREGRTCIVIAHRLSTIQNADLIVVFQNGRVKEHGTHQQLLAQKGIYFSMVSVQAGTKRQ
# Chain of DDX5 (P17844 whole entry): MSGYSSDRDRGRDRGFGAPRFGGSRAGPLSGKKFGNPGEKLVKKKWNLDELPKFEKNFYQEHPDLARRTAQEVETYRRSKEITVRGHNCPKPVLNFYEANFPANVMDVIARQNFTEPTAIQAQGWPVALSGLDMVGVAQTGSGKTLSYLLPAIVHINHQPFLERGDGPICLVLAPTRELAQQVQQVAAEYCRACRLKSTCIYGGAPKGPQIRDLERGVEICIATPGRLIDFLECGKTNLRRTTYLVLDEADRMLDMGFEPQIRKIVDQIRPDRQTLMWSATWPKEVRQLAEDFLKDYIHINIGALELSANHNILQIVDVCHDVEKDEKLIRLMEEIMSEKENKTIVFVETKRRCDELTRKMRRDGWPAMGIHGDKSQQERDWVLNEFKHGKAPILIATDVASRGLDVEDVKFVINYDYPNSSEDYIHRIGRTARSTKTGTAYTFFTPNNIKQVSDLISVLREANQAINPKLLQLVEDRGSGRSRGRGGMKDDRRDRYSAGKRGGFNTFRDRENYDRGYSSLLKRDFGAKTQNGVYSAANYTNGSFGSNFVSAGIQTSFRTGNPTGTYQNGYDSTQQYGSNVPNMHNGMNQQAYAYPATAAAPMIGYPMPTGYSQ
smiles,measurement,setting,value
"O=c1ccc2ccc(O)cc2o1 [7-hydroxycoumarin, reference compound]",microsomal CLint,in vitro [1],57.3 µL/min/mg
CC[C@@]1(O)C(=O)OCc2c1cc1n(c2=O)Cc2cc3cc4c(cc3nc2-1)OCO4 [API],Concentration (dissolution),"[2]; pH 1.2, 5 min",0.43 µg/mL
same,Concentration (dissolution),"[2]; pH 1.2, 10 min",1.55 µg/mL
same,Concentration (dissolution),"[2]; pH 1.2, 15 min",0.47 µg/mL
same,Concentration (dissolution),"[2]; pH 1.2, 30 min",0.64 µg/mL
same,Concentration (dissolution),"[2]; pH 1.2, 45 min",0.51 µg/mL
same,Concentration (dissolution),"[2]; pH 1.2, 60 min",1.43 µg/mL
same,Concentration (dissolution),"[2]; pH 1.2, 90 min",1.36 µg/mL
same,Concentration (dissolution),"[2]; pH 1.2, 120 min",4.47 µg/mL
same,Concentration (dissolution),"[2]; pH 6.8, 5 min",0.96 µg/mL
same,Concentration (dissolution),"[2]; pH 6.8, 10 min",0.19 µg/mL
same,Concentration (dissolution),"[2]; pH 6.8, 15 min",0.31 µg/mL
same,Concentration (dissolution),"[2]; pH 6.8, 30 min",1.11 µg/mL
same,Concentration (dissolution),"[2]; pH 6.8, 45 min",0.31 µg/mL
same,Concentration (dissolution),"[2]; pH 6.8, 60 min",0.90 µg/mL
same,Concentration (dissolution),"[2]; pH 6.8, 90 min",0.97 µg/mL
same,Concentration (dissolution),"[2]; pH 6.8, 120 min",1.43 µg/mL
NS(=O)(=O)c1cc(C2(O)NC(=O)c3ccccc32)ccc1Cl (stereo not shown) [Chlorthalido],RBC to Plasma Partitioning (KRBC/P),Blood partitioning,19.7
"CNC(=O)c1ccc(N2C(=S)N(c3ccc(C#N)c(C(F)(F)F)c3)C(=O)C2(C)C)cc1F [Enza, enzalutamide, reference compound]",antitumor efficacy,CRPC LAPC9 tumors,not sensitive to Enza
CC(=O)N1CCN(c2ccc(OCC3COC(Cn4ccnc4)(c4ccc(Cl)cc4Cl)O3)cc2)CC1 (stereo not shown) [Ketoconazole],% Inhibition (Positive Control),CYP3A,94.5%
"COc1ccc2[nH]c([S+]([O-])Cc3ncc(C)c(OC)c3C)nc2c1 (stereo not shown) [Omeprazole (OME), Omeprazole, reference compound]",% of OME-treated Cells,CYP1A2 mRNA,100%
"CCC1(c2ccccc2)C(=O)NC(=O)NC1=O [Phenobarbital (PB), Phenobarbital, reference compound]",% of PB-treated Cells,CYP2B6 mRNA,100%
"CO[C@H]1/C=C/O[C@@]2(C)Oc3c(C)c(O)c4c(O)c(c(/C=N/N5CCN(C)CC5)c(O)c4c3C2=O)NC(=O)/C(C)=C\C=C\[C@H](C)[C@H](O)[C@@H](C)[C@@H](O)[C@@H](C)[C@H](OC(C)=O)[C@@H]1C [Rifampicin (RIF), Rifampicin, reference compound]",Formazan Absorbance Mean,human hepatocytes,1.37
CC[C@@]1(O)C(=O)OCc2c1cc1n(c2=O)Cc2cc3cc4c(cc3nc2-1)OCO4 [Test Article],Avg. MF (Mutant Frequency),[3]; Test Article 0.1 uM,345 mutants/1×10^6 cells
same,Avg. SG,[3]; Test Article 0.1 uM,29.1
same,Avg. MF (Mutant Frequency),[3]; Test Article .01 uM,125 mutants/1×10^6 cells
same,Avg. SG,[3]; Test Article .01 uM,66.2
S=P(N1CC1)(N1CC1)N1CC1 [Thio-TEPA],% Inhibition (Positive Control),CYP2B6,71.5%
"O=P1(N(CCCl)CCCl)NCCCO1 (stereo not shown) [cyclophosphamide (CP), cyclophosphamide]",Average SG,"[3]; 4 h, +S9, 15 μg/mL",7.3
same,Day 1 Growth Cell Conc.,"[3]; 4 h, +S9, 15 μg/mL",4.79E+05 Cell/mL and 5.44E+05 Cell/mL
same,Day 2 Growth Cell Conc.,"[3]; 4 h, +S9, 15 μg/mL",1.29E+06 Cell/mL and 1.30E+06 Cell/mL
same,Relative Suspension Growth (%),"[3]; 4 h, +S9, 15 μg/mL",52.7% and 58.8%
same,Suspension Growth (SG),"[3]; 4 h, +S9, 15 μg/mL",5.9 and 7.7
same,Average SG,"[3]; 4 h, +S9, 17.5 μg/mL",4.9
same,Day 1 Growth Cell Conc.,"[3]; 4 h, +S9, 17.5 μg/mL",3.20E+05 Cell/mL and 3.86E+05 Cell/mL
same,Day 2 Growth Cell Conc.,"[3]; 4 h, +S9, 17.5 μg/mL",1.14E+06 Cell/mL and 1.25E+06 Cell/mL
same,Relative Suspension Growth (%),"[3]; 4 h, +S9, 17.5 μg/mL",32.1% and 42.0%
same,Suspension Growth (SG),"[3]; 4 h, +S9, 17.5 μg/mL",4.2 and 5.5
same,Avg. % of IMF Small Colony,"[3]; 4 h summary, +S9, 15 μg/mL",62.1%
same,Avg. IMF,"[3]; 4 h summary, +S9, 15 μg/mL",1000 ×10^−6
same,Avg. IMF Small Colony,"[3]; 4 h summary, +S9, 15 μg/mL",621 ×10^−6
same,Avg. RTG,"[3]; 4 h summary, +S9, 15 μg/mL",21.6%
same,Avg. % of IMF Small Colony,"[3]; 4 h summary, +S9, 17.5 μg/mL",58.6%
same,Avg. IMF,"[3]; 4 h summary, +S9, 17.5 μg/mL",1513 ×10^−6
same,Avg. IMF Small Colony,"[3]; 4 h summary, +S9, 17.5 μg/mL",880 ×10^−6
same,Avg. RTG,"[3]; 4 h summary, +S9, 17.5 μg/mL",6.7%
"COS(C)(=O)=O [methyl methanesulfonate (MMS), methyl methanesulfonate]",Average SG,"[3]; mouse, 24 h, 5 μg/mL",48.2
same,Avg. % of IMF Small Colony,"[3]; mouse, 24 h, 5 μg/mL",52.4%
same,Avg. IMF (Induced Mutant Frequency),"[3]; mouse, 24 h, 5 μg/mL",458 mutants/1×10^6 cells
same,Avg. IMF Small Colony,"[3]; mouse, 24 h, 5 μg/mL",240 mutants/1×10^6 cells
same,Avg. RTG (Relative Total Growth),"[3]; mouse, 24 h, 5 μg/mL",38.7%
same,Relative Suspension Growth (%),"[3]; mouse, 24 h, 5 μg/mL",62.5%
same,Average SG,"[3]; mouse, 24 h, 8 μg/mL",26.2
same,Avg. % of IMF Small Colony,"[3]; mouse, 24 h, 8 μg/mL",54.7%
same,Avg. IMF (Induced Mutant Frequency),"[3]; mouse, 24 h, 8 μg/mL",750 mutants/1×10^6 cells
same,Avg. IMF Small Colony,"[3]; mouse, 24 h, 8 μg/mL",417 mutants/1×10^6 cells
same,Avg. RTG (Relative Total Growth),"[3]; mouse, 24 h, 8 μg/mL",15.5%
"C[C@]12CC[C@H]3[C@@H](CCC4=CC(=O)CC[C@@]43C)[C@@H]1CC[C@@H]2O [testosterone, reference compound]",hepatocyte CLint,"in vitro [4]; both, human, hepatocytes, pH 7.4",212 µL/min/1e6 cells
same,half-life,"in vitro [4]; cryopreserved human hepatocytes, control compound",2.2 min
same,CLint,[5],0.0478 ml/min/mg protein
same,half-life,[5],29 min
same,microsomal CLint,in vitro [1],20.7 µL/min/mg
"CC[C@@]1(O)C(=O)OCc2c1cc1n(c2=O)Cc2cc3c(CN(C)C)c(O)ccc3nc2-1 [topotecan, reference compound]",Kd,DDX5,≥ 1080 nM
"C/C=C/C[C@@H](C)C(=O)[C@H]1C(=O)N[C@@H](C(C)C)C(=O)N(C)CC(=O)N(C)[C@@H](CC(C)C)C(=O)N[C@@H](C(C)C)C(=O)N(C)[C@@H](CC(C)C)C(=O)N[C@@H](C)C(=O)N[C@H](C)C(=O)N(C)[C@@H](CC(C)C)C(=O)N(C)[C@@H](CC(C)C)C(=O)N(C)[C@@H](C(C)C)C(=O)N1C [valspodar, reference compound]",P-gp Inhibition Potential Classification,P-gp,"Positive (ER≥2.0 without inhibitor, and reduced by ≥50% with inhibitor: Positive)"
